From ChEMBL document CHEMBL5241054, “Effective anti-aromatase therapy to battle against estrogen-mediated breast cancer: Comparative SAR/QSAR assessment on steroidal aromatase inhibitors” (Eur J Med Chem, 2020)
pIC50: −log10 of the molar value. Where “and” joins values, the source holds several entries; their conditions need not be identical. Equal entries are not always repeated.

Molecular target: T1, Aromatase (Homo sapiens, UniProt P11511)
T1 sequence (P11511 whole entry): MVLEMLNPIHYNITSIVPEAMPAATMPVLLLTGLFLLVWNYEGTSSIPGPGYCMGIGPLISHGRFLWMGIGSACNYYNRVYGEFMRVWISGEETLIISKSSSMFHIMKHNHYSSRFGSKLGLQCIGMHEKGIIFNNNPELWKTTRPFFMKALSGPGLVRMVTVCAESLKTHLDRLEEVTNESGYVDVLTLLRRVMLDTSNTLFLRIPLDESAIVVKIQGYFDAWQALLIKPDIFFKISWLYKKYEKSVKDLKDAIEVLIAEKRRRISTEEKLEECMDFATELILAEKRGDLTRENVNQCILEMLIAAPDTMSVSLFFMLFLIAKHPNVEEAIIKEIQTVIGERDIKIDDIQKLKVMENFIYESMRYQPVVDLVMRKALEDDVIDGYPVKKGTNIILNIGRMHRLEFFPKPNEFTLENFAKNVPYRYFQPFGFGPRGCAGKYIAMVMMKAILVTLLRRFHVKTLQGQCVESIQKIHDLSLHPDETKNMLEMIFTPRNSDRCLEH

SMILES | pIC50
C[C@@H]1C[C@@]2(C)C(=CC1=O)CC[C@@H]1[C@@H]2CC[C@]2(C)C(=O)CC[C@@H]12 | 6.34
C[C@]12CCC(=O)C=C1C=C(Cc1ccccc1)[C@@H]1[C@@H]2CC[C@]2(C)C(=O)CC[C@@H]12 | 7.21
C[C@]12CCC(=O)C=C1C=C(Cc1ccc([N+](=O)[O-])cc1)[C@@H]1[C@@H]2CC[C@]2(C)C(=O)CC[C@@H]12 | 7.03
C[C@]12CCC(=O)C=C1C=C(Cc1ccc(N)cc1)[C@@H]1[C@@H]2CC[C@]2(C)C(=O)CC[C@@H]12 | 7.06

Molecular target: T1, Aromatase
Remark: another data set of the same source

SMILES | pIC50
C[C@]12CCCC[C@@H]1CC[C@@H]1[C@@H]2CC[C@]2(C)C(=O)CC[C@@H]12 | 5.64
CN1N=C2[C@H](C[C@H]3[C@@H]4CCC5=CC(=O)C=C[C@]5(C)[C@H]4CC[C@]23C)[C@H]1c1ccccc1 | 5.61
C[C@]12C=CC(=O)C=C1C=C(c1ccccc1)[C@@H]1[C@@H]2CC[C@]2(C)C(=O)CC[C@@H]12 | 5.65
COc1ccc([C@@H]2[C@H]3C[C@H]4[C@@H]5CCC6=CC(=O)C=C[C@]6(C)[C@H]5CC[C@]4(C)C3=NN2C)cc1 | 5.68
C[C@@H]1C[C@@]2(C)C(=CC1=O)CC[C@@H]1[C@@H]2CC[C@]2(C)C(=O)CC[C@@H]12 | 6.60 and 6.34
C[C@]12C=CC(=O)C=C1CC[C@@H]1[C@@H]2CC[C@]2(C)C3=NN(c4ccccc4)[C@H](c4ccccc4)[C@H]3C[C@@H]12 | 5.70
C[C@]12CCC(=O)C=C1C=C(Cc1ccccc1)[C@@H]1[C@@H]2CC[C@]2(C)C(=O)CC[C@@H]12 | 6.22
CC(=O)N1N=C2[C@H](C[C@H]3[C@@H]4CC[C@H]5C[C@@H](OC(=O)C(F)(F)F)CC[C@]5(C)[C@H]4CC[C@]23C)[C@H]1c1ccccc1 | 5.18
COc1ccc([C@@H]2[C@H]3C[C@H]4[C@@H]5CC[C@H]6CC(=O)CC[C@]6(C)[C@H]5CC[C@]4(C)C3=NN2c2ccccc2)cc1 | 5.38
C[C@]12CCC(=O)C[C@@H]1CC[C@@H]1[C@@H]2CC[C@]2(C)C3=NN[C@H](c4ccccc4)[C@H]3C[C@@H]12 | 5.28
CCOC1=C[C@@H]2[C@H](CC[C@]3(C)C(=O)CC[C@@H]23)[C@@]2(C)CCC(=O)C=C12 | 6.12
CCC(=O)N1N=C2[C@H](C[C@H]3[C@@H]4CC[C@H]5C[C@@H](OC(=O)C(F)(F)F)CC[C@]5(C)[C@H]4CC[C@]23C)[C@H]1c1ccc(OC)cc1 | 5.18
C[C@]12CCC(=O)C=C1C=C(Cc1ccc([N+](=O)[O-])cc1)[C@@H]1[C@@H]2CC[C@]2(C)C(=O)CC[C@@H]12 | 6.03
C[C@]12CC[C@@H]3C4CCC(=O)C=C4C(=O)C[C@H]3[C@@H]1CCC2=O (some centres not stated) | 4.92
COc1ccc([C@@H]2[C@H]3C[C@H]4[C@@H]5CC[C@H]6C[C@@H](OC(=O)C(F)(F)F)CC[C@]6(C)[C@H]5CC[C@]4(C)C3=NN2C)cc1 | 5.24
CC(=O)N1N=C2[C@H](C[C@H]3[C@@H]4CCC5=CC(=O)C=C[C@]5(C)[C@H]4CC[C@]23C)[C@H]1c1ccccc1 | 5.54
COC1=C[C@@H]2[C@H](CC[C@]3(C)C(=O)CC[C@@H]23)[C@@]2(C)C=CC(=O)C=C12 | 6.10
COc1ccc([C@@H]2[C@H]3C[C@H]4[C@@H]5CC[C@H]6C[C@@H](OC(=O)C(F)(F)F)CC[C@]6(C)[C@H]5CC[C@]4(C)C3=NN2c2ccccc2)cc1 | 5.26
C[C@]12CC[C@H](OC(=O)C(F)(F)F)C[C@@H]1CC[C@@H]1[C@@H]2CC[C@]2(C)C3=NN(c4ccccc4)[C@H](c4ccccc4)[C@H]3C[C@@H]12 | 5.25
C[C@]12CC[C@@H]3C4CCC(=O)C=C4CC[C@H]3[C@@H]1CCC2=O (some centres not stated) | 5.92
CC(=O)N1N=C2[C@H](C[C@H]3[C@@H]4CC[C@H]5CC(=O)CC[C@]5(C)[C@H]4CC[C@]23C)[C@H]1c1ccccc1 | 5.31
CCC(=O)N1N=C2[C@H](C[C@H]3[C@@H]4CC[C@H]5C[C@@H](OC(=O)C(F)(F)F)CC[C@]5(C)[C@H]4CC[C@]23C)[C@H]1c1ccccc1 | 5.17
C[C@]12CC[C@H](O)C[C@@H]1CC[C@@H]1[C@@H]2CC[C@]2(C)C3=NN(c4ccccc4)[C@H](c4ccccc4)[C@H]3C[C@@H]12 | 5.22
COc1ccc(/C=C2/C[C@H]3[C@@H]4CC[C@H]5C[C@@H](O)CC[C@]5(C)[C@H]4CC[C@]3(C)C2=O)cc1 | 5.15
CN1N=C2[C@H](C[C@H]3[C@@H]4CC[C@H]5C[C@@H](O)CC[C@]5(C)[C@H]4CC[C@]23C)[C@H]1c1ccccc1 | 5.20
C/C=C1\CC[C@@]2(C)[C@@H](CC[C@@H]3[C@@H]2CC[C@]2(C)C4=NN(C)[C@H](c5ccccc5)[C@H]4C[C@@H]32)C1 | 5.46
CN1N=C2[C@H](C[C@H]3[C@@H]4CC[C@H]5CC(=O)CC[C@]5(C)[C@H]4CC[C@]23C)[C@H]1c1ccccc1 | 5.32

SMILES | pIC50
COc1ccc([C@@H]2[C@H]3C[C@H]4[C@@H]5CC[C@H]6C[C@@H](OC(=O)C(F)(F)F)CC[C@]6(C)[C@H]5CC[C@]4(C)C3=NN2C(C)=O)cc1 | 5.19
CCOC1=C[C@@H]2[C@H](CC[C@]3(C)C(=O)CC[C@@H]23)[C@@]2(C)C=CC(=O)C=C12 | 6.02
COC1=C[C@@H]2[C@H](CC[C@]3(C)C(=O)CC[C@@H]23)[C@@]2(C)CCC(=O)C=C12 | 6.16
C[C@]12C=CC(=O)C=C1CC[C@@H]1[C@@H]2CC[C@]2(C)C(=O)C(Br)C[C@@H]12 (some centres not stated) | 4.88
COc1ccc([C@H]2NN=C3[C@@H]2C[C@H]2[C@@H]4CC[C@H]5C[C@@H](O)CC[C@]5(C)[C@H]4CC[C@]32C)cc1 | 5.17
CN1N=C2[C@H](C[C@H]3[C@@H]4CC[C@H]5C[C@@H](OC(=O)C(F)(F)F)CC[C@]5(C)[C@H]4CC[C@]23C)[C@H]1c1ccccc1 | 5.24
COc1ccc([C@@H]2[C@H]3C[C@H]4[C@@H]5CC[C@H]6C[C@@H](O)CC[C@]6(C)[C@H]5CC[C@]4(C)C3=NN2c2ccccc2)cc1 | 5.23
CC(=O)O[C@H]1[C@@H](n2ccnc2)C[C@H]2[C@@H]3CC=C4C[C@@H](N5CCCC5)CC[C@]4(C)[C@H]3CC[C@@]21C | 5.31
C[C@]12CC[C@H](O)C[C@@H]1CC[C@@H]1[C@@H]2CC[C@]2(C)C3=NN[C@H](c4ccccc4)[C@H]3C[C@@H]12 | 5.16
COc1ccc([C@@H]2[C@H]3C[C@H]4[C@@H]5CCC6=CC(=O)C=C[C@]6(C)[C@H]5CC[C@]4(C)C3=NN2C(C)=O)cc1 | 5.58
COc1ccc([C@H]2NN=C3[C@@H]2C[C@H]2[C@@H]4CC[C@H]5CC(=O)CC[C@]5(C)[C@H]4CC[C@]32C)cc1 | 5.31
C[C@]12CC[C@H](OC(=O)C(F)(F)F)C[C@@H]1CC[C@@H]1[C@@H]2CC[C@]2(C)C(=O)/C(=C\c3ccccc3)C[C@@H]12 | 5.15
C[C@]12C=CC(=O)C=C1CC[C@@H]1[C@@H]2CC[C@]2(C)C3=NN[C@H](c4ccccc4)[C@H]3C[C@@H]12 | 5.52
C[C@]12C=CC(=O)C=C1C[C@H](c1ccc(N)cc1)[C@@H]1[C@@H]2CC[C@]2(C)C(=O)CC[C@@H]12 | 8.00
C/C=C1\CC[C@@]2(C)[C@@H](CC[C@@H]3[C@@H]2CC[C@]2(C)C4=NN(C)[C@H](c5ccc(OC)cc5)[C@H]4C[C@@H]32)C1 | 5.47
COc1ccc([C@H]2NN=C3[C@@H]2C[C@H]2[C@@H]4CCC5=CC(=O)C=C[C@]5(C)[C@H]4CC[C@]32C)cc1 | 5.54
C/C=C1\CC[C@@]2(C)[C@@H](CC[C@@H]3[C@@H]2CC[C@]2(C)C4=NN(c5ccccc5)[C@H](c5ccccc5)[C@H]4C[C@@H]32)C1 | 5.48
COc1ccc([C@@H]2[C@H]3C[C@H]4[C@@H]5CC[C@H]6CC(=O)CC[C@]6(C)[C@H]5CC[C@]4(C)C3=NN2C(C)=O)cc1 | 5.31
C/C=C1\CC[C@@]2(C)[C@@H](CC[C@@H]3[C@@H]2CC[C@]2(C)C4=NN(c5ccccc5)[C@H](c5ccc(OC)cc5)[C@H]4C[C@@H]32)C1 | 5.49
C[C@]12CCC(=O)C[C@@H]1CC[C@@H]1[C@@H]2CC[C@]2(C)C3=NN(c4ccccc4)[C@H](c4ccccc4)[C@H]3C[C@@H]12 | 5.37
C[C@]12CCC(=O)C=C1CC[C@@H]1[C@@H]2CC[C@]2(C)C(=O)C(Br)C[C@@H]12 (some centres not stated) | 5.58
COc1ccc([C@@H]2[C@H]3C[C@H]4[C@@H]5CC[C@H]6C[C@@H](O)CC[C@]6(C)[C@H]5CC[C@]4(C)C3=NN2C)cc1 | 5.21
C[C@]12CCC(=O)C[C@@H]1C(=O)C[C@@H]1[C@@H]2CC[C@]2(C)C(=O)CC[C@@H]12 | 5.40
C[C@]12CCC(=O)C=C1C=C(Cc1ccc(N)cc1)[C@@H]1[C@@H]2CC[C@]2(C)C(=O)CC[C@@H]12 | 6.31
COc1ccc([C@@H]2[C@H]3C[C@H]4[C@@H]5CC[C@H]6CC(=O)CC[C@]6(C)[C@H]5CC[C@]4(C)C3=NN2C)cc1 | 5.34
COc1ccc(/C=C2/C[C@H]3[C@@H]4CC[C@H]5C[C@@H](OC(=O)C(F)(F)F)CC[C@]5(C)[C@H]4CC[C@]3(C)C2=O)cc1 | 5.16
